Our source for the logP and chromatographic logP values is patent US8101550B2, “Anthranilic acid diamide derivative with hetero-aromatic and hetero-cyclic substituents” (Bayer Cropscience AG, priority 2006, dated 2012).

As a reminder, the logP is a log measure of how a compound divides between an organic and an aqueous phase.

One series can be described thus: log P determination by HPLC on reverse-phase column (EEC Directive 79/831 Annex V.A8). The class given is physicochemical.
Conditions: not given
The procedure:
The log P values stated in the foregoing tables and preparation examples are determined in accordance with EEC Directive 79/831 Annex V.A8 by means of HPLC (High Performance Liquid Chromatography) on a reverse-phase column (C 18). Temperature: 43° C.
The determination by LC-MS in the acidic range takes place at a pH of 2.7 using 0.1% aqueous formic acid and acetonitrile (containing 0.1% formic acid) as eluents; linear gradient from 10% acetonitrile to 95% acetonitrile.
Calibration is with unbranched alkan-2-ones (having 3 to 16 carbon atoms) of known log P value (log P values determined from the retention times by linear interpolation between two successive alkanones).
`Cc1cc(C#N)cc(C(N)=O)c1NC(=O)c1cc(Cn2nc(C(F)(F)F)nc2C(F)(F)F)nn1-c1ncccc1Cl` [I-1-179] returned a logP of 2.91.
On the same count and under the same terms, under `Cc1cc(I)cc(C(=O)NC(C)C2CC2)c1NC(=O)c1cc(Cn2nc(C(F)(F)F)cc2C(F)(F)F)nn1-c1ncccc1Cl` (stereo not shown) [I-1-233] stands 4.55; under `Cc1cc(I)cc(C(=O)N(C)C)c1NC(=O)c1cc(Cn2nc(C(F)(F)F)cc2C(F)(F)F)nn1-c1ncccc1Cl` [I-1-256], 3.84.
Molecule `Cc1cc(I)cc(C(=O)NC(C)C)c1NC(=O)c1cc(Cn2nc(C(F)(F)F)cc2C(F)(F)F)nn1-c1ncccc1Cl` [I-1-230] displayed a logP of 4.29.
The same measure, in the same setting: under `Cc1cc(Cl)cc(C(=O)NC(C)C)c1NC(=O)c1cc(Cn2nnc(-c3cc(Cl)nc(Cl)c3)n2)nn1-c1ncccc1Cl` [I-1-156] stands 4.17.
On the same count and under the same terms, under `CNC(=O)c1cc(C#N)cc(C)c1NC(=O)c1cc(Cn2nc(C(F)(F)F)nc2C(F)(F)F)nn1-c1ncccc1Cl` [I-1-176] stands 3.11; under `O=C(NC1CC1)c1cc(Cl)cc(Cl)c1NC(=O)c1cc(Cn2ccc(C(F)(F)F)n2)nn1-c1ncccc1Cl` [I-1-315], 2.54.
Same read-out and setting: under `CNC(=O)c1cc(C#N)cc(C)c1NC(=O)c1cc(Cn2ccc(C(F)(F)F)n2)nn1-c1ncccc1Cl` [I-1-181] stands 2.57.
Consider `CNC(=O)c1cc(Cl)cc(Cl)c1NC(=O)c1cc(Cn2cc(C(F)(F)C(F)(F)F)c(C(F)(F)C(F)(F)F)n2)nn1-c1ncccc1Cl` [I-1-297], for which the logP amounted to 3.59.
Same read-out and setting: under `CNC(=O)c1cc(Cl)cc(C)c1NC(=O)c1cc(Cn2nc(C)c(Br)c2C)nn1-c1ncccc1Cl` [I-1-270] stands 2.95; under `Cc1cc(C#N)cc(C(=O)NC2CC2)c1NC(=O)c1cc(Cn2cc(C(F)(F)C(F)(F)F)c(C(F)(F)C(F)(F)F)n2)nn1-c1ncccc1Cl` [I-1-191], 4.29; under `CC(C)NC(=O)c1cc(Cl)cc(Cl)c1NC(=O)c1cc(Cn2cnc(C(F)(F)C(F)(F)F)n2)nn1-c1ncccc1Cl` [I-1-327], 2.97.
On the same count and under the same terms, under `NC(=O)c1cc(Cl)cc(Cl)c1NC(=O)c1cc(Cn2cnc(C(F)(F)C(F)(F)F)n2)nn1-c1ncccc1Cl` [I-1-336] stands 2.32; under `CNC(=O)c1cc(F)cc(C)c1NC(=O)c1cc(Cn2ccc(C(F)(F)F)n2)nn1-c1ncccc1Cl` [I-1-222], 2.58.
Take `CC(C)NC(=O)c1cc(Cl)cc(Cl)c1NC(=O)c1cc(Cn2nc(C(F)F)c([N+](=O)[O-])c2C(F)F)nn1-c1ncccc1Cl` [I-1-259]: the logP was found to be 3.27.
The same measure, in the same setting: under `Cc1cc(C#N)cc(C(=O)NC(C)C)c1NC(=O)c1cc(Cn2nc(C(F)(F)F)nc2C(F)(F)F)nn1-c1ncccc1Cl` [I-1-177] stands 3.53.
Take `CNC(=O)c1cc(F)cc(C)c1NC(=O)c1cc(Cn2cc(C(F)(F)C(F)(F)F)c(C(F)(F)C(F)(F)F)n2)nn1-c1ncccc1Cl` [I-1-220]: the logP is reported as 4.06.
With `Cc1cc(Cl)cc(C(=O)NC(C)C)c1NC(=O)c1cc(Cn2cnc(C(F)(F)C(F)(F)F)n2)nn1-c1ncccc1Cl` [I-1-323], the logP amounted to 3.01.
The molecule `CNC(=O)c1cc(Cl)cc(Cl)c1NC(=O)c1cc(Cn2ccc(C(F)(F)F)n2)nn1-c1ncccc1Cl` [I-1-312] had a logP of 2.37.
Same read-out and setting: under `Cc1cc(Cl)cc(C(=O)NC(C)C)c1NC(=O)c1cc(Cn2nnc(-c3ccc(Br)cc3)n2)nn1-c1ncccc1Cl` [I-1-151] stands 4.20.
On to `Cc1cc(F)cc(C(=O)NC(C)C)c1NC(=O)c1cc(Cn2cc(C(F)(F)C(F)(F)F)c(C(F)(F)C(F)(F)F)n2)nn1-c1ncccc1Cl` [I-1-217], for which the logP came to 4.47.
`Cc1cc(F)cc(C(=O)NC(C)C)c1NC(=O)c1cc(Cn2ccc(C(F)(F)F)n2)nn1-c1ncccc1Cl` [I-1-226] showed a logP of 3.00.

The series is the same for the next values; noted with them: HPLC on reverse-phase column.
Turning to `Cc1cc(Cl)cc(C(=O)NC(C)(C)C[S+](C)[O-])c1NC(=O)c1cc(Cn2cc(Br)c(C(F)(F)F)n2)nn1-c1ncccc1Cl` (stereo not shown) [I-1-128], the logP was 3.25.
Same read-out and setting: under `Cc1cc(Br)cc(C(=O)NCC#N)c1NC(=O)c1cc(Cn2cc(Cl)c(C(F)(F)C(F)(F)F)n2)nn1-c1ncccc1Cl` [I-1-73] stands 3.87; under `CSCC(C)(C)NC(=O)c1cc(Br)cc(C)c1NC(=O)c1cc(Cn2cc(Br)c(C(F)(F)F)n2)nn1-c1ncccc1Cl` [I-1-98], 4.47.
As to `Cc1cc(Br)cc(C(=O)NC2CC2)c1NC(=O)c1cc(Cn2cc(Cl)c(C(F)(F)C(F)(F)F)n2)nn1-c1ncccc1Cl` [I-1-72], the lipophilicity (logP) came out at 4.14.
`CNC(=O)c1cc(Cl)cc(C)c1NC(=O)c1cc(Cn2ccc(C(F)(F)F)n2)nn1-c1ncccc1Cl` [I-1-44] came in with a logP of 2.92.
Molecule `CSC[C@H](C)NC(=O)c1cc(Br)cc(C)c1NC(=O)c1cc(Cn2nc(C(F)(F)F)nc2C(F)(F)F)nn1-c1ncccc1Cl` [I-1-135] displayed a lipophilicity (logP) of 4.24.
On the same count and under the same terms, under `Cc1cc(Br)cc(C(=O)NCC#N)c1NC(=O)c1cc(Cn2nc(C(F)(F)F)nc2C(F)(F)F)nn1-c1ncccc1Cl` [I-1-56] stands 3.44.
Same read-out and setting: under `Cc1cc(Cl)cc(C(=O)NC(C)C)c1NC(=O)c1cc(Cn2nnn(CC(F)(F)F)c2=O)nn1-c1ncccc1Cl` [I-1-123] stands 2.92; under `CSC[C@H](C)NC(=O)c1cccc(C)c1NC(=O)c1cc(Cn2nc(C(F)(F)F)nc2C(F)(F)F)nn1-c1ncccc1Cl` [I-1-84], 3.62.
The molecule `Cc1cc(Cl)cc(C(=O)NC(C)C)c1NC(=O)c1cc(Cn2nnn(-c3cc(C(F)(F)F)cc(C(F)(F)F)c3)c2=O)nn1-c1ncccc1Cl` [I-1-91] gave a lipophilicity (logP) of 4.51.
On the same count and under the same terms, under `Cc1cc(Br)cc(C(=O)NC(C)(C)CS(C)(=O)=O)c1NC(=O)c1cc(Cn2nc(C(F)(F)F)nc2C(F)(F)F)nn1-c1ncccc1Cl` [I-1-142] stands 3.67; under `Cc1cc(Cl)cc(C(=O)NC(C)C)c1NC(=O)c1cc(Cn2nnn(-c3c(C)cccc3Cl)c2=O)nn1-c1ncccc1Cl` [I-1-51], 3.52; under `CSCC(C)(C)NC(=O)c1cc(Br)cc(C)c1NC(=O)c1cc(Cn2nc(C(F)(F)F)nc2C(F)(F)F)nn1-c1ncccc1Cl` [I-1-134], 4.63.

The same series, now with this note: HPLC, reverse-phase column (C 18), 43° C., acidic range pH 2.7.
Regarding `Cc1cc(Cl)cc(C(N)=O)c1NC(=O)c1cc(Cn2nc(C(F)(F)F)cc2C(F)(F)F)nn1-c1ncc(C(F)(F)F)cc1Cl` [I-2-17], the lipophilicity (logP) is reported as 4.09.
On the same count and under the same terms, under `Cc1cc(I)cc(C(=O)NC2CC2)c1NC(=O)c1cc(Cn2nc(C(F)(F)F)cc2C(F)(F)F)nn1-c1ncc(C(F)(F)F)cc1Cl` [I-2-10] stands 4.73.
In turn, `Cc1cc(Br)cc(C(=O)NC2CC2)c1NC(=O)c1cc(Cn2nc(C(F)(F)F)cc2C(F)(F)F)nn1-c1ncc(C(F)(F)F)cc1Cl` [I-2-24] gave a logP of 4.63.

Still in this series, the particulars now being: reverse-phase C18 HPLC column; HPLC, reverse-phase column (C 18), 43° C., acidic range pH 2.7; read-out: logP.
With `Cc1cc(Cl)cc2c(=O)oc(-c3cc(Cn4nc(C(F)(F)F)cc4C(F)(F)F)nn3-c3ncccc3Cl)nc12` [Example 2, 2-[5-(3,5-Bistrifluoromethylpyrazol-1-ylmethyl)-2-(3-chloropyridin-2-yl)-2H-pyrazol-3-yl]-6-chloro-8-methylbenzo[d][1,3]oxazin-4-one], the chromatographic logP stood at 5.11.
The same measure, in the same setting: under `O=C(O)c1cc(Cn2nc(C(F)(F)F)cc2C(F)(F)F)nn1-c1ncccc1Cl` [Example 3, 5-(3,5-Bistrifluoromethylpyrazol-1-ylmethyl)-2-(3-chloropyridin-2-yl)-2H-pyrazole-3-carboxylic acid] stands 2.86.
